Assay results from ChEMBL document CHEMBL2331290, “4-Hydroxypyridazin-3(2H)-one derivatives as novel D-amino acid oxidase inhibitors” (J Med Chem, 2013).

Tests used:
HEK293 = assay: Cytotoxicity against HEK293 cells overexpressing human full length DAAO by Alamar Blue assay; assay type: cell-based
[1] = Effective permeability of the compound at pH 6.5 after 2 hrs by PAMPA; assay type: ADME; details: read-out: Peff
D-amino-acid oxidase [2] = target: D-amino-acid oxidase (Mus musculus, UniProt P18894)
D-amino-acid oxidase (Mus musculus, UniProt P18894), sequence (P18894 whole entry): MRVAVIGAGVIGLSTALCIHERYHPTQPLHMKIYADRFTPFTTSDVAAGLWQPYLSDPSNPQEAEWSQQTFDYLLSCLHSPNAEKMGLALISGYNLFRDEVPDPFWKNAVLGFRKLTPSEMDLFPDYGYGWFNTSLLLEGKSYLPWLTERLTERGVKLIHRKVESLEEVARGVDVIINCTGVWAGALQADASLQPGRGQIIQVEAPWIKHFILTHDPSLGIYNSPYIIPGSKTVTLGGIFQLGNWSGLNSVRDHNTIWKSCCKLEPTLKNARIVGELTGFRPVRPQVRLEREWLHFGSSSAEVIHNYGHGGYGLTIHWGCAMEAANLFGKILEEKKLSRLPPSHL
Description: Inhibition of mouse full length DAAO overexpressed in HEK293 cells after 30 mins by plate reader analysis

D-amino-acid oxidase [3] = target: T1, D-amino-acid oxidase (Homo sapiens, UniProt P14920); assay: Inhibition of human recombinant DAAO after 30 mins by plate reader analysis
T1 sequence (P14920 whole entry): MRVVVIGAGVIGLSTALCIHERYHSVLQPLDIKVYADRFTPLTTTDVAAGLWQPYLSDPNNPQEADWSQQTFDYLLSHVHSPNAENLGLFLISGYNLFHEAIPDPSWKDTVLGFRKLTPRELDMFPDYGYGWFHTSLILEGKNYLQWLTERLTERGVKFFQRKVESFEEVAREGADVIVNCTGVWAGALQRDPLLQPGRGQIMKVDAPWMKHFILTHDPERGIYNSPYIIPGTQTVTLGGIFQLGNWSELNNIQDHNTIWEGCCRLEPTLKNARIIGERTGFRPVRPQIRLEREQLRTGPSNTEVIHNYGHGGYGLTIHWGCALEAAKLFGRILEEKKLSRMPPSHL

D-amino-acid oxidase [4] = target: T1, D-amino-acid oxidase
Description: Inhibition of human full length DAAO overexpressed in HEK293 cells after 30 mins by plate reader analysis

D-amino-acid oxidase [5] = target: D-amino-acid oxidase (Rattus norvegicus, UniProt O35078)
D-amino-acid oxidase (Rattus norvegicus, UniProt O35078), sequence (O35078 whole entry): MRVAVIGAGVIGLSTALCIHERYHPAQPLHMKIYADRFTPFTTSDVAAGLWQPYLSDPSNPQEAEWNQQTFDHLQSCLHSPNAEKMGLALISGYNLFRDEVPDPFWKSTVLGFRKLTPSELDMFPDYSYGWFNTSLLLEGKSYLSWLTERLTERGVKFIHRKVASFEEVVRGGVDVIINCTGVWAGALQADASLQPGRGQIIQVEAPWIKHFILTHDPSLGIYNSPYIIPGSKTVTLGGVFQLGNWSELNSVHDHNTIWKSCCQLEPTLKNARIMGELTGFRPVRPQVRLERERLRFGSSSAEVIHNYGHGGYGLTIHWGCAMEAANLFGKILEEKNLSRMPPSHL
Description: Inhibition of rat full length DAAO overexpressed in HEK293 cells after 30 mins by plate reader analysis

[6] = Plasma concentration in ddY mouse at 30 mg/kg, po after 30 mins by LC-MS/MS analysis; assay type: ADME, organism-based; set-up: dose 30 mg/kg, route oral
[7] = Drug uptake in ddY mouse brain at 30 mg/kg, po after 30 mins by LC-MS/MS analysis; assay type: ADME, organism-based; set-up: dose 30 mg/kg, route oral; details: read-out: Drug uptake
D-amino-acid oxidase [8] = target: T1, D-amino-acid oxidase; remark: listed apart in the source
Description: Inhibition of DAAO (unknown origin) by cell based assay

Row | SMILES | IC50 (D-amino-acid oxidase [2]) | IC50 (D-amino-acid oxidase [5]) | further results
1 | O=c1[nH]cc(CCc2ccccc2)cc1O |  |  | Activity (HEK293): Toxic; Papp at 2 h [1]: > 300 nm/s
2 | CC(C)(C)CCc1cc(O)c(=O)[nH]n1 | > 1000 nM | > 1000 nM | IC50 (D-amino-acid oxidase [3]): 670 nM; IC50 (D-amino-acid oxidase [4]): > 1000 nM
3 | O=c1[nH]nc(CCc2cc(C(F)(F)F)cc(C(F)(F)F)c2)cc1O | 490 nM | 1900 nM | 
4 | COc1cc(CCc2cc(O)c(=O)[nH]n2)cc(OC)c1 | 12 nM | 19 nM | 
5 | Oc1cccnc1O |  |  | IC50 (D-amino-acid oxidase [3]): 1150 nM
6 | O=c1[nH]nc(CCc2ccccc2F)cc1O | 3.6 nM | 4.9 nM | 
7 | O=c1[nH]nc(CCc2ccccc2)cc1O | 3.3 nM | 4.6 nM | 
8 | O=c1[nH]nc(C2CCCCC2)cc1O | > 1000 nM | > 1000 nM | IC50 (D-amino-acid oxidase [3]): 300 nM; IC50 (D-amino-acid oxidase [4]): > 1000 nM
9 | O=c1[nH]nc(CCc2ccc(C(F)(F)F)cc2)cc1O [LUVADAXISTAT] | 5.9 nM | 5 nM | 
10 | COc1cccc(CCc2cc(O)c(=O)[nH]n2)c1 | 4.4 nM | 5.6 nM | 
11 | O=c1[nH]nc(CCc2cccc(F)c2)cc1O | 1.9 nM | 2.6 nM | 
12 | O=c1[nH]nc(CCc2cc(F)cc(F)c2)cc1O | 4.4 nM | 16 nM | concentration at 0.5 h [6]: 6.54 µg/mL; concentration at 0.5 h [7]: 0.46 µg/mL
13 | O=c1[nH]cc(Cl)cc1O |  |  | IC50 (D-amino-acid oxidase [3]): 47 nM; IC50 (D-amino-acid oxidase [8]): 930 nM; Papp at 2 h [1]: 64 nm/s
14 | O=c1[nH]nc(CCC2CCCCC2)cc1O | 3.2 nM | 8.2 nM | 
15 | O=C(O)c1cc2sccc2[nH]1 |  |  | IC50 (D-amino-acid oxidase [3]): 1.4 nM; IC50 (D-amino-acid oxidase [8]): 147 nM; Papp at 2 h [1]: 8 nm/s
16 | O=c1[nH]c2ccccc2cc1O |  |  | Papp at 2 h [1]: 182 nm/s
17 | O=c1cc(COc2ccccc2)[nH]nc1O | 4.6 nM | 6.5 nM | 
18 | CC(c1ccccc1)c1cc(O)c(=O)[nH]n1 (stereo not drawn) | 2.8 nM | 3.1 nM | 
19 | O=c1[nH]nc(CCCc2ccccc2)cc1O | 426 nM | 1220 nM | 
20 | COc1ccc(CCc2cc(O)c(=O)[nH]n2)cc1 | 3.6 nM | 3.8 nM | 
21 | O=c1[nH]nc(CCc2ccc(Cl)cc2)cc1O | 1.9 nM | 2.4 nM | 
22 | O=c1[nH]nc(/C=C/c2ccc(Cl)cc2)cc1O | 240 nM | 470 nM | IC50 (D-amino-acid oxidase [3]): 120 nM; IC50 (D-amino-acid oxidase [4]): 570 nM
23 | Cc1c[nH]c(=O)c(O)c1 |  |  | IC50 (D-amino-acid oxidase [3]): 140 nM; Activity (HEK293): Toxic
24 | O=c1[nH]nc(CCc2ccc(F)cc2)cc1O | 2.5 nM | 2.2 nM | 
25 | O=c1[nH]nc(CCc2ccccc2C(F)(F)F)cc1O | 7.1 nM | 41 nM | 
